This note sets out measurements from PubChem BioAssay (NCI).

Some test systems named below: HOP-92 NSCLC; SNB-19 CNS; SF-539 CNS; ACHN renal; HL-60(TB) leukemia; BT-549 breast; K-562 leukemia; TK-10 renal; PC-3 prostate; SF-295 CNS.
What all share (experiment): growth of human tumour cells (NCI), 48 h

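Protocol summary: plate cells (96-well), add compound at 5 concentrations, incubate 48 h, interpolate endpoints linearly. GI50 = concentration required for 50% inhibition of growth. TGI: concentration producing complete growth inhibition.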 Some results are limits rather than exact numbers.

In the case of `CN1CC(C(=O)NC2(C)OC3(O)C4CCCN4C(=O)C(Cc4ccccc4)N3C2=O)C=C2c3cccc4[nH]cc(c34)CC21` (stereo not given), the TGI in the assay on HOP-92 NSCLC is 38.6 µM; with SNB-19 CNS, greater than 100 µM; with SF-539 CNS, 39 µM; in the assay on ACHN renal, 55.1 µM; in the assay on HL-60(TB) leukemia, 39.1 µM; in the assay on BT-549 breast, 43 µM. Besides, the TGI with K-562 leukemia is greater than 100 µM; in the assay with TK-10 renal, 41.4 µM; in the assay with PC-3 prostate, 59.6 µM; in the assay with SF-295 CNS, 57.1 µM.

`CCCCCCN(CCCCCC)CC(O)c1cccc2ccc(Cl)cc12` (stereo not given): the GI50 is 3.21 µM in the assay with HOP-92 NSCLC; 12.9 µM in the assay on SNB-19 CNS; 1.58 µM in the assay on SF-539 CNS; 5.89 µM in the assay on ACHN renal; 9.63 µM with HL-60(TB) leukemia; 14.1 µM with BT-549 breast. Also, the GI50 was 4.87 µM in the assay on K-562 leukemia, 12.4 µM in the assay on TK-10 renal, 9.59 µM in the assay with PC-3 prostate and 6.32 µM with SF-295 CNS. Moreover, the TGI in the assay with HOP-92 NSCLC was 19.5 µM; in the assay with SNB-19 CNS it was 26.6 µM; with SF-539 CNS, 4.95 µM; in the assay with ACHN renal, 18.8 µM; in the assay with HL-60(TB) leukemia it was 24.6 µM; with BT-549 breast, 28 µM. Moreover, the TGI is 20.9 µM in the assay on K-562 leukemia, 25.4 µM in the assay on TK-10 renal, 25 µM in the assay with PC-3 prostate and 22.1 µM in the assay on SF-295 CNS.
